The record followed here is ChEMBL document CHEMBL5096219, “Design, synthesis and biological evaluation of novel pyrazinone derivatives as PI3K/HDAC dual inhibitors” (Bioorg Med Chem, 2022).

A value given as a limit tells only on which side of the number the result lay.

For test [1], the target named is T1, Protein deacetylase HDAC6 (Homo sapiens, UniProt Q9UBN7).
T1 sequence (Q9UBN7 whole entry): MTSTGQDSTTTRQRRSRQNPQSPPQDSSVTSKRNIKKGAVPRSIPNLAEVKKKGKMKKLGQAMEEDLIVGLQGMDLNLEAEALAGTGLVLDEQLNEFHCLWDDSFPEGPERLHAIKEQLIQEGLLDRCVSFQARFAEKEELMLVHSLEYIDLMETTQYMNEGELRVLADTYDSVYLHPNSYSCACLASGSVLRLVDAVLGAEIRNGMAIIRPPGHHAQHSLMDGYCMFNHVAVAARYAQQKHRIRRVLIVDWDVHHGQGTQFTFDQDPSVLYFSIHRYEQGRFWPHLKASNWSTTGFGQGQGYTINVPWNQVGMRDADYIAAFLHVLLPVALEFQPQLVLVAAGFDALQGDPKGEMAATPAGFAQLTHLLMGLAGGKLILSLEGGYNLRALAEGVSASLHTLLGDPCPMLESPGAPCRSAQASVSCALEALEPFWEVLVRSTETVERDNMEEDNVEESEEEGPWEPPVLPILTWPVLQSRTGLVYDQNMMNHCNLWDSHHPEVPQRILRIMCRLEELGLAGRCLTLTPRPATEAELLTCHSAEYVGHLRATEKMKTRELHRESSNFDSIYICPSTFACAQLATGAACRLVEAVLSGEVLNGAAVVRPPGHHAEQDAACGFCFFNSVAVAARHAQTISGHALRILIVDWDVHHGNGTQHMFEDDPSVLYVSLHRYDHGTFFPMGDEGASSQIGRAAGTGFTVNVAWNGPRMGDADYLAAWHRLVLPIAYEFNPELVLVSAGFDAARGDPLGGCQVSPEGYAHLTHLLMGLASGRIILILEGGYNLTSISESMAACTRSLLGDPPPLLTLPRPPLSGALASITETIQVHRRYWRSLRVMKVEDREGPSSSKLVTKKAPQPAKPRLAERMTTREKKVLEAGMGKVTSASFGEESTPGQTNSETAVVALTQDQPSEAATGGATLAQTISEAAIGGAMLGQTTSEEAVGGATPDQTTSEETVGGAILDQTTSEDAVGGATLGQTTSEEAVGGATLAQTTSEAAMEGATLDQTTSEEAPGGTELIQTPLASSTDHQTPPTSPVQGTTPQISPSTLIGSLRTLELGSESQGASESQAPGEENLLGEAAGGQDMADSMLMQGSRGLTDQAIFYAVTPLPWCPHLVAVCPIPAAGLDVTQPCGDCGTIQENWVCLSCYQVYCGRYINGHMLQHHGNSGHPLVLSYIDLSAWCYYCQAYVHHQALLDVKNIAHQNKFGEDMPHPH
The experiment in a line: Inhibition of HDAC6 (unknown origin).

Test [2] deals with T2, Protein deacetylase HDAC6 (Homo sapiens) (UniProt Q9UBN7).
T2 sequence (whole entry): T1 sequence (Q9UBN7 whole entry)
Conditions: dose 100.0 nM.
Description: Inhibition of HDAC6 (unknown origin) at 100 nM

Another test relates to K562. In words: cells. Type of test: functional, cell-based. The conditions noted are these: Homo sapiens, K562, 72 h.
Test [3] relates to MV4-11. The experiment in a line: Induction of cell cycle arrest in human MV4-11 cells assessed as accumulation of cells at G0/G1 phase at 1 uM incubated for 48 hrs by […]PI staining based flow cytometry (reference value: 33.1%). Type of test: functional.
Test [4] relates to MV4-11. The experiment in a line: Induction of apoptosis in human MV4-11 cells assessed as viable cells at 1 uM incubated for 48 hrs by Annexin V-FITC/PI staining based flow cytometry (reference value: 96.5%). Conditions: read-out: Activity. The test is classed as functional.
For test [5], the system named is MV4-11. In words: Induction of apoptosis in human MV4-11 cells assessed as late apoptotic cells at 1 uM incubated for 48 hrs by Annexin V-FITC/PI staining based flow cytometry (reference value: 2.04%). The test is classed as functional.
For test [6], the system named is MV4-11. The experiment in a line: cells. The test is classed as functional, cell-based. The conditions noted are these: Homo sapiens, MV4-11, 72 h.
Description: Antiproliferative activity against human MV4-11 cells assessed as inhibition of cell proliferation incubated for 72 hrs by CCK8 assay
The subject of test [7] is MV4-11. In words: Induction of cell cycle arrest in human MV4-11 cells assessed as accumulation of cells at S phase at 1 uM incubated for 48 hrs by […]PI staining based flow cytometry (reference value: 45.5%). Type of test: functional.
Test [8] relates to MV4-11. In words: Induction of cell cycle arrest in human MV4-11 cells assessed as accumulation of cells at G2/M phase at 1 uM incubated for 48 hrs by […]PI staining based flow cytometry (reference value: 11.5%). The test is classed as functional.
The next test concerns HL-60. In words: cells. Type of test: functional, cell-based. The conditions noted are these: Homo sapiens, HL-60, 72 h.
For test [9], the system named is MV4-11. In words: Induction of apoptosis in human MV4-11 cells assessed as early apoptotic cells at 1 uM incubated for 48 hrs by Annexin V-FITC/PI staining based flow cytometry (reference value: 0.95%). The test is classed as functional.
Test [10] deals with MV4-11. The experiment in a line: Induction of apoptosis in human MV4-11 cells assessed as necrotic cells at 1 uM incubated for 48 hrs by Annexin V-FITC/PI staining based flow cytometry (reference value: 0.51%). The test is classed as functional.
Test [11] deals with Phosphatidylinositol 4,5-bisphosphate 3-kinase catalytic subunit alpha isoform (Homo sapiens, UniProt P42336). In words: Inhibition of PI3Kalpha (unknown origin) by mobility shift assay.
Phosphatidylinositol 4,5-bisphosphate 3-kinase catalytic subunit alpha isoform, sequence (P42336 whole entry, canonical isoform): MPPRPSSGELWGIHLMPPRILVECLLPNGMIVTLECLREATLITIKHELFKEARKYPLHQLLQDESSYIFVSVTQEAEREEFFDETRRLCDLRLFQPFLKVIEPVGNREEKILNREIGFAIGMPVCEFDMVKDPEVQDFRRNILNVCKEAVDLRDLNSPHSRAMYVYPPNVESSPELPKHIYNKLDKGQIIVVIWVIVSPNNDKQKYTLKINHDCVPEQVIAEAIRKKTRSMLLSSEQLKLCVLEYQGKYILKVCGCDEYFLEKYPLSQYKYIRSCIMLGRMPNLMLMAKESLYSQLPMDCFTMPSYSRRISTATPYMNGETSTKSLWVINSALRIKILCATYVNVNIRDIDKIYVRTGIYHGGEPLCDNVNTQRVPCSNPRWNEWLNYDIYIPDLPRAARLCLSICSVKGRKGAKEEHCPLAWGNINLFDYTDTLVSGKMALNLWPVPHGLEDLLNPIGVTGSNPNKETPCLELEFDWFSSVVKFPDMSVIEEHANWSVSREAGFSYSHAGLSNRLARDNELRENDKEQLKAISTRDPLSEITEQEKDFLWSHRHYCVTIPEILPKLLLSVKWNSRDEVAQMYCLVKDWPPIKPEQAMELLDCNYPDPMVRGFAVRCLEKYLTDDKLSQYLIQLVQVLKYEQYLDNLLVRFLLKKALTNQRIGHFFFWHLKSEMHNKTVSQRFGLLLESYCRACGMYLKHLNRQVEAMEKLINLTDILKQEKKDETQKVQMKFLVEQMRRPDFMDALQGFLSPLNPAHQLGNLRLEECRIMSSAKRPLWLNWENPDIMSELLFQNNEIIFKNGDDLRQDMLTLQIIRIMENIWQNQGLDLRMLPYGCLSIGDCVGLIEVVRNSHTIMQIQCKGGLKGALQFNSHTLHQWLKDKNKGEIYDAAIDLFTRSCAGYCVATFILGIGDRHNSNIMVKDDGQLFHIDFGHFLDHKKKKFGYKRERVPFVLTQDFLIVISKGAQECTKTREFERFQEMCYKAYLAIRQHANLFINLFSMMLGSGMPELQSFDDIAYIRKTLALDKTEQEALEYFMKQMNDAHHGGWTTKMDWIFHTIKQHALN

Description for HL-60: Antiproliferative activity against human HL-60 cells assessed as inhibition of cell proliferation incubated for 72 hrs by CCK8 assay
Description for K562: Antiproliferative activity against human K562 cells assessed as inhibition of cell proliferation incubated for 72 hrs by CCK8 assay

In test [1], `O=C(NO)c1ccc(Cn2cc(-c3ccc(CO)cc3)nc(N3CCOCC3)c2=O)cc1` had an IC50 of 15 nM.

In test [1], `CN1CCN(c2nc(-c3cnc(N)nc3)cn(Cc3ccc(C(=O)NO)cc3)c2=O)CC1` showed an IC50 of 4.2 nM.

On to `O=C(NO)c1ccc(Cn2cc(-c3ccc(O)cc3)nc(N3CCOCC3)c2=O)cc1`, for which, in test [2], the inhibition was 94%. This compound also returned an IC50 in test [1] of 14 nM.

`O=C(NO)c1ccc(Cn2cc(-c3cn[nH]c3)nc(N3CCOCC3)c2=O)cc1`: the midpoint of inhibition in test [1], the IC50, lay at 30 nM.

With `Nc1cc(C(F)(F)F)c(-c2cc(N3CCOCC3)nc(N3CCOCC3)n2)cn1` [BUPARLISIB], the half-maximal inhibitory concentration (IC50) in the test with K562 was found to be 730 nM; in the test with MV4-11 [6], 730 nM; with HL-60, 1510 nM. Moreover, the Activity in the test with MV4-11 [3] was 48.1%; in the test on MV4-11 [5], 6.42%; in the test with MV4-11 [7], 34.7%; in the test on MV4-11 [8], 9.96%; in the test on MV4-11 [9], 1.37%; in the test on MV4-11 [10], 3.19%. In the test on MV4-11 [4], the viability at 1 µM is 89%.

`CCCn1cc(-c2cnc(N)nc2)nc(N2CCOCC2)c1=O`: in test [11], the concentration for half-maximal inhibition (IC50) came out at 25 nM.

Compound `Cc1noc(C)c1-c1cn(Cc2ccc(C(=O)NO)cc2)c(=O)c(N2CCOCC2)n1` yielded an IC50 in [1] of 32 nM.

`O=C(NO)c1ccc(Cn2cc(-c3cccc(CO)c3)nc(N3CCOCC3)c2=O)cc1`: the IC50 stood at 590 nM with K562, 70 nM with MV4-11 [6], 580 nM in the test with HL-60 and 14 nM in test [1].

On to `Nc1ncc(-c2cn(CCCCCCC(=O)NO)c(=O)c(N3CCOCC3)n2)cn1`, for which the IC50 in test [11] was 127 nM; with K562, 3840 nM; in the test with MV4-11 [6], 1980 nM; in the test on HL-60, 18400 nM; in test [1], 54 nM. Further, the inhibition in test [2] was 73%.

Take `O=C(NO)c1ccc(Cn2cc(-c3cccnc3)nc(N3CCOCC3)c2=O)cc1`: the inhibition in test [2] was determined as 92%. This compound also had an IC50 in test [1] of 15 nM.

In the case of `Nc1ccc(-c2cn(Cc3ccc(C(=O)NO)cc3)c(=O)c(N3CCOCC3)n2)cc1`, the inhibition in [2] amounted to 101%. The IC50 in test [1] amounted to 13 nM.

With `O=C(CCCCCCC(=O)Nc1ccccc1)NO` [VORINOSTAT], the Activity is on record as 43.2% with MV4-11 [3]; 12.9% in the test on MV4-11 [5]; 5.62% in the test with MV4-11 [7]; 28.6% in the test on MV4-11 [8]; 9.99% in the test with MV4-11 [9]; 0.93% with MV4-11 [10]. Also, the viability at 1 µM in the test with MV4-11 [4] amounted to 76.1%.

Turning to `COC1CCN(c2nc(-c3cnc(N)nc3)cn(Cc3ccc(C(=O)NO)cc3)c2=O)CC1`, the half-maximal inhibitory concentration (IC50) in test [1] came out at 7.4 nM.

On to `Nc1ncc(-c2cc(N3CCOCC3)c(=O)n(Cc3ccc(C(=O)NO)cc3)n2)cn1`, for which the inhibition in [2] is 94%. The compound further displayed a half-inhibitory concentration (IC50) in test [1] of 13 nM.

On to `CNc1ncc(-c2cn(Cc3ccc(C(=O)NO)cc3)c(=O)c(N3CCOCC3)n2)cn1`, for which the concentration for half-maximal inhibition (IC50) in [11] came to 336 nM; in the test with K562, 6120 nM; in the test on MV4-11 [6], 1370 nM; in the test with HL-60 it was 4290 nM; in test [1] it was 9.1 nM.

Regarding `Nc1ncc(-c2cn(CCCCCCCC(=O)NO)c(=O)c(N3CCOCC3)n2)cn1`, the concentration for half-maximal inhibition (IC50) in test [11] is 278 nM; in the test on K562, 4560 nM; in the test with MV4-11 [6] it was 1520 nM; in the test on HL-60, 9870 nM; in [1], 194 nM. For the same compound, the inhibition in [2] was found to be 27%.

As for `Nc1ncc(-c2cn(Cc3ccc(C(=O)NO)cc3)c(=O)c(N3CCOCC3)n2)cn1`, the IC50 in test [11] was found to be 197 nM; in the test with K562 it was 13800 nM; in the test on MV4-11 [6], 4850 nM; in the test on HL-60 it was 21000 nM; in test [1], 15 nM. Moreover, the inhibition in [2] came to 92%.

Turning to `O=C(NO)c1ccc(Cn2cc(-c3ccoc3)nc(N3CCOCC3)c2=O)cc1`, in test [1], 7.9 nM corresponded to half-maximal inhibition (IC50).

On to `O=C(NO)c1ccc(Cn2cc(-c3cncnc3)nc(N3CCOCC3)c2=O)cc1`, for which the inhibition in test [2] came out at 69%. Also, in test [1], the IC50 worked out at 35 nM.

As to `Nc1ncc(-c2cn(CCCCCC(=O)NO)c(=O)c(N3CCOCC3)n2)cn1`, the IC50 in test [11] is 157 nM; with K562, above 50000 nM; with MV4-11 [6] it was 19700 nM; in the test on HL-60, 12700 nM; in [1] it was 109 nM. In addition, in test [2], the inhibition stood at 45%.

In [1], `Nc1ncc(-c2cn(Cc3cccc(C(=O)NO)c3)c(=O)c(N3CCOCC3)n2)cn1` showed a half-maximal inhibitory concentration (IC50) of 650 nM.

In the case of `Nc1ncc(-c2cc(N3CCOCC3)c(=O)n(Cc3ccc(C(=O)NO)cc3)c2)cn1`, in test [2], the inhibition came to 95%. The same compound gave an IC50 in [1] of 20 nM.

Turning to `Cn1cc(-c2cn(Cc3ccc(C(=O)NO)cc3)c(=O)c(N3CCOCC3)n2)cn1`, half-maximal inhibition in test [1] (IC50) was put at 21 nM.

Take `Nc1ncc(-c2cn(Cc3ccc(C(=O)NO)cc3)c(=O)c(Nc3ccccc3)n2)cn1`: in test [1], half-maximal inhibition (IC50) was put at 6.9 nM.

Consider `Nc1ccc(-c2cn(Cc3ccc(C(=O)NO)cc3)c(=O)c(N3CCOCC3)n2)cn1`, for which the inhibition in test [2] was 91%. The compound also registered a concentration for half-maximal inhibition (IC50) in [1] of 12 nM.

`Nc1ncc(-c2cn(Cc3ccc(C(=O)NO)cc3)c(=O)c(N3CCCCC3)n2)cn1` registered a half-maximal inhibitory concentration (IC50) in test [1] of 4.2 nM.

In the case of `O=C(NO)c1ccc(Cn2cc(-c3cccc(O)c3)nc(N3CCOCC3)c2=O)cc1`, the IC50 amounted to 467 nM in test [11]; 3840 nM in the test on K562; 90 nM in the test on MV4-11 [6]; 1140 nM with HL-60; 23 nM in test [1]. In addition, in test [2], the inhibition came out at 94%.
